# Assays:
# [1] = system: firefly luciferase driven by the SMN2 promoter and SMN2 splicing cassette; test: SMN2 reporter gene assay, firefly luciferase; format: cell-based; conditions: 24 hrs
# Protocol: (§1) The SMN2 reporter cell line was cultured in high-glucose DMEM supplemented with 10% (v/v) fetal bovine serum (FBS) and 1X Penicillin/Streptomycin. Reporter cells media was supplemented with hygromycin during maintenance. All cells were maintained at 37°C and […]. After seeding in 96-well white tissue culture plates at 25,000 per well, cells were incubated overnight before being exposed to different doses of compounds or DMSO for 24 hrs. The final DMSO concentration was kept constant at 0.1% (v/v). Firefly and renilla luciferase expression were assayed with DualGlo (Promega E2920) and measured on a PHERAstar FS microplate reader (BMG Labtech). Relative light units are normalized to DMSO control and expressed as a percentage.
# [2] = system: Renilla luciferase driven by the CMV promoter; test: Reporter gene assay, CMV-driven Renilla luciferase; format: cell-based; conditions: 24 hrs
# Protocol: as §1
# N2a cells = test: RNA-Seq (polyA RNA) of N2a neuroblastoma cells; format: cell-based, mouse; conditions: 1 μM
# Protocol: Cells were then pelleted and lysed in RLT and the RNA was purified according to the protocol for the Qiagen miRNeasy kit to separate and enrich small RNA and large (>200 nt) fractions separately. […] RNA quality was also validated using qPCR for DcpS responsive genes. RNA fractions were used for cDNA library preparation which was performed using Truseq mRNA v2 reagents or TailorMix miRNA reagents (RS-122-2101 Illumina, San Diego CA, USA and TM302 Seqmatic, Fremont CA, USA). Libraries were run on a Nextseq 500 (Illumina) using a paired-end run (2x75bp) generating ~60 million reads per library for the mRNA-seq and 1x75bp generating ~5 million reads per library for the miRNA-seq. Demultiplexing, alignment, and differential analysis for the mRNA-seq were performed as described below. For the miRNA alignment, briefly the sequences between 16 and 35 nucleotides with average phred score ≥ 30 were retained for analysis. The reads were first mapped to mouse miRNAs using Bowtie without allowing for mismatches. Instead of discarding the remaining reads, we explored the possibilities of RNA editing to include potential isomiRs. These reads were mapped to miRNAs that have at most 1 base mismatch, a substitution at the 5’ or 3’ ends, or have 1 or 2 extra bases at either ends. Although 1 base mismatch would include 1 base substitution/deletion/addition at the ends, we made sure that 1 base mismatch was inside the miRNA and that all categories were mutually exclusive. Reads mapping to protein coding exons and other small RNAs were removed prior to mapping to miRNAs. Reads that uniquely mapped to miRNAs were considered and were profiled as: 1) identical to miRNAs, 2) perfect match to miRNAs but are of shorter length (no more than 5 bases short), 3) mapping to miRNAs with 1 substitution, 1 or 2 extra bases at 3’ and 5’ ends and with those with at most 1 mismatch (occurring inside the sequence and not on ends), 4) mapping to the precursor miRNA. Thus, steps 2–4 constitute “IsomiRs”-alternative forms of the mature miRNAs. We merged the counts of reads identical to a miR and those mapping to isomeric forms as they are found to have identical/very similar functions. The unaligned reads were mapped to the mouse genome and an internally developed database of rRNAs from bacteria, fungi, plant and eukaryotes to detect presence of contaminants. For differential analysis of miRNAs, only those with counts of ≥5 in at least 1/3rd samples (treatment vs control) were considered for analysis. The counts were normalized and analyzed using EdgeR [19] packages in R-Bioconductor. The P-values were corrected by FDR for multiple testing and miRNAs with FDR ≤15% and |FC|>1.5 were considered to be differentially expressed.
# The differentially regulated gene lists for both the spinal cord mRNA-seq and the N2a mRNA-seq results with a corrected P-value less than 0.05 were loaded into IPA and analyzed against the Ingenuity Knowledgebase, Ingenuity Expert Information, and with experimentally observed confidence.
# recombinant human DcpS = target: T1, recombinant human DcpS (Homo sapiens, UniProt Q96C86); test: in vitro DcpS inhibition assay (m7GpppA-biotin substrate, ADP-biotin detection); format: biochemical; conditions: mean of two or more independent assays
# T1 sequence (Q96C86 1-337): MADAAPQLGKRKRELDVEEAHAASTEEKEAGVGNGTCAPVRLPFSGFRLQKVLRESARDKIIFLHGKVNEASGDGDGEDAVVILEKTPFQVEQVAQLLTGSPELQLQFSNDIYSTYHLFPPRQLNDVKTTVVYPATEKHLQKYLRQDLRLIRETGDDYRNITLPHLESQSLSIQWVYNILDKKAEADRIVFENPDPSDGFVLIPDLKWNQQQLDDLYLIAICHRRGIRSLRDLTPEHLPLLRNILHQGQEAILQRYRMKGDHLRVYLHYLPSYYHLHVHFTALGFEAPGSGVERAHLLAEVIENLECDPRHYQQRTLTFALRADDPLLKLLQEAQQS
# Protocol: Incubations were initiated by the addition of 50 nM m7GpppA-biotin substrate and proceeded for 45 min at room temperature before being terminated by the addition of 1 μM D156844 [11]. Production of ADP-biotin was quantitated by transferring 18 μl of the quenched reaction (or biotin-ADP standard) to a streptavidin-coated plate (Pierce), incubating for 2 hours then washing 3 times followed by detection using an anti-ADP mouse antibody (Bellbrook lab) and an HRP-conjugated Goat anti-mouse IgG (Invitrogen).
# Smn mRNA in NSC-34 cells = system: Smn mRNA in NSC-34 cells; design: method as in PMID 18205293; conditions: cited from earlier work
# [3] = system: SMN protein in SMA patient fibroblasts; design: method as in PMID 18205293; conditions: cited from earlier work
# SMA Δ7 mice = conditions: SMAΔ7 mice; cited from earlier work
# [4] = cited from earlier work
# [5] = system: SMN transcripts in SMA-derived lymphoblasts; test: SMN transcripts by ddPCR in SMA-derived lymphoblasts; format: cell-based, human; conditions: active DAQ-DcpSi vs 7-methyl analogues
# 2B/- SMA mice [6] = test: Survival and body weight study in 2B/- SMA mice; format: in vivo, mouse; conditions: b.i.d. i.p. P4-P20, RG3039 6 mg/kg, PF-06738066 10 mg/kg, P < 0.0001 Mantel-Cox or Gehan-Breslow-Wilcoxon
# 2B/- SMA mice [7] = test: Combined 55° negative geotaxis/climb test in 2B/- SMA mice; format: in vivo, mouse
# [8] = system: Smn transcripts in spinal cord, skeletal muscle, liver; test: Smn transcripts in mouse tissues by ddPCR; format: in vivo
# Excerpt: (§2) At P1, pups were counted.
# Smn protein [9] = test: Smn protein in mouse tissues by Western blot; format: in vivo; conditions: 2B/- SMA mice
# Excerpt: as §2
# [10] = Plasma drug levels after P4-P16 dosing; conditions: FVB/N background, mouse, ip
# Excerpt: Personnel conducting studies followed the approved standard operating procedures for daily monitoring, dosing, weaning and euthanasia according to the approved study protocol. […] Line maintenance was maintained by interbreeding of the congenic line and every 4th generation mice were outbred to wild type FBV/N mice (jax # 001800) to reduce the possibility of new mutations within the line. Smn 2B mice were internally developed and maintained in the DiDonato laboratory. To generate the SMA mice used in this study an intercross between Smn 2B/2B and Smn +/- mice was performed. This generated litters in which 50% of the offspring were control (2B/+) and 50% SMA (2B/-). The day of birth was considered to be P0. If pups were born after 3pm, the following day was considered P0. At P1, pups were counted. If greater than 10 pups to a cage, pups were randomly chosen and moved to another cage to increase litter size, culled to reduce litter size or genotyped at P1 and culled at P2 to reduce litter size to 10 or fewer pups. Thereafter, no culling of pups was performed for drug studies. Individual mice were genotyped from DNA obtained from tail snips by polymerase chain reaction (PCR). All mice were weaned at P21 and separated into male and female cages. […] For the PK single dose studies a single ip injection was used. […] Body weights were recorded daily in the AM and dosing volume was adjusted accordingly. […]
# [11] = Single dose PK in adult FVB/N wild type mice
# Excerpt: Personnel conducting studies followed the approved standard operating procedures for daily monitoring, dosing, weaning and euthanasia according to the approved study protocol. […] Line maintenance was maintained by interbreeding of the congenic line and every 4th generation mice were outbred to wild type FBV/N mice (jax # 001800) to reduce the possibility of new mutations within the line. Smn 2B mice were internally developed and maintained in the DiDonato laboratory. To generate the SMA mice used in this study an intercross between Smn 2B/2B and Smn +/- mice was performed. This generated litters in which 50% of the offspring were control (2B/+) and 50% SMA (2B/-). The day of birth was considered to be P0. If pups were born after 3pm, the following day was considered P0. At P1, pups were counted. If greater than 10 pups to a cage, pups were randomly chosen and moved to another cage to increase litter size, culled to reduce litter size or genotyped at P1 and culled at P2 to reduce litter size to 10 or fewer pups. Thereafter, no culling of pups was performed for drug studies. Individual mice were genotyped from DNA obtained from tail snips by polymerase chain reaction (PCR). All mice were weaned at P21 and separated into male and female cages. […] For the PK single dose studies a single ip injection was used. For survival studies drug level and tissue harvest mice from P4-P16 treatment, mice were treated twice daily (b.i.d.) via intraperitoneal (i.p.) injection starting on P4 and continuing until P20 or the sacrifice of the animals, whichever occurred sooner. The dosing interval was 12 hours ± 90 minutes. Body weights were recorded daily in the AM and dosing volume was adjusted accordingly. […] At P4, litters were randomized across treatment arms to uniformly control litter size and litter weight as appropriate. Litter size entry was a minimum of 6 and maximum of 10. Litters with average weights at P4 that were greater or less than two stand deviations below the average P4 litter weight of untreated litters were also excluded from study entry. All mice within a litter were dosed with only one test article or received no dose at all. Dosers/phenotypic testers were blinded to the test articles being administered. […] Mice meeting humane functional endpoints (30 percent loss of weight for two consecutive days and/or an inability to right within 1 minute or obvious state of distress) were immediately euthanized with CO2 followed by cervical dislocation as a secondary measure. […] Those not used for analyses were also euthanized using CO2 inhalation followed by cervical dislocation as a secondary measure.
# [12] = Single dose PK in P13 2B/- SMA and 2B/+ littermate pups
# Excerpt: Personnel conducting studies followed the approved standard operating procedures for daily monitoring, dosing, weaning and euthanasia according to the approved study protocol. […] Line maintenance was maintained by interbreeding of the congenic line and every 4th generation mice were outbred to wild type FBV/N mice (jax # 001800) to reduce the possibility of new mutations within the line. Smn 2B mice were internally developed and maintained in the DiDonato laboratory. To generate the SMA mice used in this study an intercross between Smn 2B/2B and Smn +/- mice was performed. This generated litters in which 50% of the offspring were control (2B/+) and 50% SMA (2B/-). The day of birth was considered to be P0. If pups were born after 3pm, the following day was considered P0. At P1, pups were counted. If greater than 10 pups to a cage, pups were randomly chosen and moved to another cage to increase litter size, culled to reduce litter size or genotyped at P1 and culled at P2 to reduce litter size to 10 or fewer pups. Thereafter, no culling of pups was performed for drug studies. Individual mice were genotyped from DNA obtained from tail snips by polymerase chain reaction (PCR). All mice were weaned at P21 and separated into male and female cages. […] For the PK single dose studies a single ip injection was used. For survival studies drug level and tissue harvest mice from P4-P16 treatment, mice were treated twice daily (b.i.d.) via intraperitoneal (i.p.) injection starting on P4 and continuing until P20 or the sacrifice of the animals, whichever occurred sooner. The dosing interval was 12 hours ± 90 minutes. Body weights were recorded daily in the AM and dosing volume was adjusted accordingly. […] At P4, litters were randomized across treatment arms to uniformly control litter size and litter weight as appropriate. Litter size entry was a minimum of 6 and maximum of 10. Litters with average weights at P4 that were greater or less than two stand deviations below the average P4 litter weight of untreated litters were also excluded from study entry. […]
# SMN protein [13] = test: SMN protein by Western blot in SMA cells (fibroblasts, lymphoblasts, iPS-derived neural progenitor cells); format: cell-based, human; conditions: 24 hours to 7 days
# Protocol: Lysates were incubated at 95°C for 5 minutes and cleared at 14,000 RPM for 15 minutes. Cleared lysates were quantified by BCA assay. A total of 5 μg of each lysate was mixed with NuPage LDS sample buffer with […] and loaded and separated on a NuPage 10% Bis-Tris gel. Proteins were transferred to 0.2 micron nitrocellulose using the BioRad Turbo Transfer system.
# [14] = P16, Fisher's exact test P-value = 0.0708
# [15] = adult FVB/N mice, 30 mg/kg i.p.
smiles,measurement,setting,value
Cc1cc(OCC2CCN(Cc3c(Cl)cccc3Cl)CC2)c2c(N)nc(N)nc2c1 [PF-06802336],effect on SMN2-driven firefly luciferase activity,[1],no effect
same,effect on CMV-driven Renilla luciferase activity,[2],no effect
same,genes down-regulated by compound (P < 0.05),N2a cells; 24 hours,3 genes
same,genes upregulated by compound (P < 0.05),N2a cells; 24 hours,4 genes
same,genes differentially expressed compared to DMSO (P < 0.05),"N2a cells; 24 hours, 18,409 detectable genes",7 genes
CC(C)c1cc(C(=O)Nc2ccc(F)c(Cl)c2)no1 [LDN-75654],effect on SMN2-driven firefly luciferase activity,[1],strong positive effect
same,effect on CMV-driven Renilla luciferase activity,[2],much weaker
Cc1cc(COc2cc(F)cc(C#N)c2)c2c(N)nc(N)nc2c1 [PF-06832344],IC50,recombinant human DcpS,> 10 µM
Nc1nc(N)c2c(OCC3CCN(Cc4ccccc4F)CC3)cccc2n1 [D156844],effect on CMV-driven Renilla luciferase activity,[2],strong effect
same,endogenous mouse Smn mRNA,Smn mRNA in NSC-34 cells,elevated the endogenous mouse Smn mRNA
same,SMN protein levels,[3],raised SMN protein levels
same,numbers of SMN-positive nuclear foci (gems),[3],dramatically increased
same,SMN2 or SMNΔ7 transcript levels or SMN protein in CNS tissues,SMA Δ7 mice,no statistically significant effect
same,snRNP assembly,SMA Δ7 mice,nor did it have any statistically significant effect
same,"physicochemical character (lipophilicity, basicity)",[4],highly lipophilic and dibasic
N#Cc1cc(F)cc(OCc2cccc3nc(N)nc(N)c23)c1 [PF-06738066],changes in SMN transcripts,[5],modest changes in SMN transcripts
same,effect on CMV-driven Renilla luciferase activity,[2],strong effect
same,effect on survival of SMA mice compared to vehicle-treated SMA mice,2B/- SMA mice [6],statistically significant beneficial effect on survival
same,"simultaneous pass rate, 55° negative geotaxis and climb test","2B/- SMA mice [7]; 2B/- SMA mice at P16, combined sexes",about 78%
same,improvement in ability to pass the combined assay over vehicle SMA mice,2B/- SMA mice [7]; [14],~40%
same,statistical significance of improvement over vehicle SMA mice in combined test,2B/- SMA mice [7]; [14],showed improvement over vehicle SMA mice that did not reach statistical significance
same,Smn exons 7/8 in spinal cord,[8]; 2B/+ control mice,significant decrease
same,"Smn transcripts (exons 5/6, exons 7/8, SmnΔ7) in tissues","[8]; 2B/- SMA mice, P4-P16 BID i.p.",significant increases in Smn transcripts in all tissues
same,Smn protein levels in muscle,Smn protein [9],small but significant increase in muscle
same,Smn protein levels in spinal cord,Smn protein [9],significant decrease in spinal cord
same,concentration at 12 h,[10],184 ± 76 nM
same,"Cave,u Brain","[11]; FVB/N mice, 30mpk IP",63 nM
same,"Cave,u CSF","[11]; FVB/N mice, 30mpk IP",47 nM
same,"Cave,u Plasma","[11]; FVB/N mice, 30mpk IP",173 nM
same,brain penetration,[11]; [15],moderate brain penetration
same,free drug levels in brain and CSF lower than in plasma,[11]; [15],approximately 2.5 fold
same,free drug levels in brain lower than in plasma,"[12]; 2B/- SMA pups, P13, 10 mg/kg i.p.",3–4 fold
same,concentration at 12 h,"[12]; FVB/N background, mouse, brain, intraperitoneal, 10 mg/kg",~7 nM
same,drug exposures in SMA pups compared to healthy littermates,"[12]; P13, 10 mg/kg i.p.",somewhat higher in SMA pups
CCN1CCN(c2ccc3cc(-c4cn5cc(C)nc(C)c5n4)c(=O)oc3c2)C[C@@H]1C [SMN-C2],SMN protein,SMN protein [13],positive SMN response
same,effect on SMN2-driven firefly luciferase activity,[1],strong positive effect
same,effect on CMV-driven Renilla luciferase activity,[2],no effect

# From PMC5612656, “In vitro and in vivo effects of 2,4 diaminoquinazoline inhibitors of the decapping scavenger enzyme DcpS: Context-specific modulation of SMN transcript levels” (PLoS ONE, 2017)
